Data from US9504669B2, “Spliceostatin analogs and methods for their preparation” (PFIZER INC., priority 2012, dated 2016).

Tests used:
Format in all cases: cell-based
Settings in all cases: free compounds (natural products and synthetic analogs), cell viability 96 hours after treatment
[1] = tested on: BT474 (breast cancer) cells; assay: In vitro cell assay (MTS cell viability), BT474
Procedure: (§1) Target expressing (BT474 (breast cancer), N87 (gastric cancer), HCC1954 (breast cancer), MDA-MB-361-DYT2 (breast cancer)) or non-expressing (MDA-MB-468) cells were seeded in 96-well cell culture plates for 24 hours before treatment. Cells were treated with 3-fold serially diluted antibody-drug conjugates or free compounds (i.e., no antibody conjugated to the drug) in duplicate at 10 concentrations. Cell viability was determined by CellTiter 96® AQueous One Solution Cell Proliferation MTS Assay (Promega, Madison Wis.) 96 hours after treatment. Relative cell viability was determined as percentage of untreated control. IC50 values were calculated using a four parameter logistic model #203 with XLfit v4.2 (IDBS, Guildford, Surry, UK). The potency ranged upward from 0.0002 nm. Similar procedures and techniques were employed.

[2] = tested on: MDA-MB-361-DYT2 (breast cancer) cells; assay: In vitro cell assay (MTS cell viability), MDA-MB-361-DYT2
Procedure: as §1

[3] = tested on: N87 (gastric cancer) cells; assay: In vitro cell assay (MTS cell viability), N87
Procedure: as §1

Row | SMILES | IC50 [1] [nM] | IC50 [2] [nM] | IC50 [3] [nM] | IC50 ([1]; Homo sapiens, BT-474) [nM] | IC50 ([2]; 96 h) [nM] | IC50 ([3]; 96 h) [nM]
1 | CC(=O)O[C@@H](C)/C=C\C(=O)N[C@@H]1C[C@H](C)[C@H](C/C=C(C)/C=C/[C@H]2O[C@H](CC(=O)N[C@H]3CC[C@H](N(C)C)CC3)C[C@@]3(CO3)[C@@H]2O)O[C@@H]1C (relative stereo) [#B86, (2S,3Z)-5-{[(2R,3R,5S,6S)-6-{(2E,4E)-5-[(3R,4R,5R,7S)-7-(2-{[trans-4-(dimethylamino)cyclohexyl]amino}-2-oxoethyl)-4-hydroxy-1,6-dioxaspiro[2.5]oct-5-yl]-3-methylpenta-2,4-dien-1-yl}-2,5-dimethyltetrahydro-2H-pyran-3-yl]amino}-5-oxopent-3-en-2-yl acetate] | 20.1 | 73.3 | 14 |  |  | 
2 | CC(=O)O[C@@H](C)/C=C\C(=O)N[C@@H]1C[C@H](C)[C@H](C/C=C(C)/C=C/[C@@H]2C[C@]3(CO3)C[C@@H](CC(=O)N[C@H]3CC[C@H](N(C)C)CC3)O2)O[C@@H]1C (relative stereo) [#B87, (2S,3Z)-5-{[(2R,3R,5S,6S)-6-{(2E,4E)-5-[(3S,5S,7S)-7-(2-{[trans-4-(dimethylamino)cyclohexyl]amino}-2-oxoethyl)-1,6-dioxaspiro[2.5]oct-5-yl]-3-methylpenta-2,4-dien-1-yl}-2,5-dimethyltetrahydro-2H-pyran-3-yl]amino}-5-oxopent-3-en-2-yl acetate] | 1.21 | 3.47 | 0.744 |  |  | 
3 | CC(=O)O[C@@H](C)/C=C\C(=O)N[C@@H]1C[C@H](C)[C@H](C/C=C(C)/C=C/[C@@H]2C[C@]3(CO3)C[C@@H](CC(=O)N[C@H]3CC[C@@H](N(C)C)CC3)O2)O[C@@H]1C (relative stereo) [#B90, (2S,3Z)-5-{[(2R,3R,5S,6S)-6-{(2E,4E)-5-[(3S,5S,7S)-7-(2-{[cis-4-(dimethylamino)cyclohexyl]amino}-2-oxoethyl)-1,6-dioxaspiro[2.5]oct-5-yl]-3-methylpenta-2,4-dien-1-yl}-2,5-dimethyltetrahydro-2H-pyran-3-yl]amino}-5-oxopent-3-en-2-yl acetate] | 1.26 | 3.9 | 0.87 |  |  | 
4 | CC(=O)O[C@@H](C)/C=C\C(=O)N[C@@H]1C[C@H](C)[C@H](C/C=C(C)/C=C/[C@@H]2C[C@]3(CO3)C[C@@H](CC(=O)NN)O2)O[C@@H]1C [#B7, (2S,3Z)-5-{[(2R,3R,5S,6S)-6-{(2E,4E)-5-[(3S,5S,7S)-7-(2-hydrazinyl-2-oxoethyl)-1,6-dioxaspiro[2.5]oct-5-yl]-3-methylpenta-2,4-dien-1-yl}-2,5-dimethyltetrahydro-2H-pyran-3-yl]amino}-5-oxopent-3-en-2-yl acetate] |  |  |  | 1.12 | 1.88 | 0.344
5 | CCCNC(=O)NC[C@@H]1C[C@@]2(CO2)[C@H](O)[C@@H](/C=C/C(C)=C/C[C@@H]2O[C@H](C)[C@H](NC(=O)/C=C\[C@H](C)OC(C)=O)C[C@@H]2C)O1 [#B242, (2S,3Z)-5-{[(2R,3R,5S,6S)-6-{(2E,4E)-5-[(3R,4R,5R,7S)-4-hydroxy-7-{[(propylcarbamoyl)amino]methyl}-1,6-dioxaspiro[2.5]oct-5-yl]-3-methylpenta-2,4-dien-1-yl}-2,5-dimethyltetrahydro-2H-pyran-3-yl]amino}-5-oxopent-3-en-2-yl acetate] |  |  |  |  | 3.76 | 0.57
6 | COC(=O)C[C@@H]1C[C@@]2(CO2)[C@H](OC)[C@@H](/C=C/C(C)=C/C[C@@H]2O[C@H](C)[C@H](NC(=O)/C=C\[C@H](C)O)C[C@@H]2C)O1 [#B264, methyl [(3R,5S,7R,8R)-7-{(1E,3E)-5-[(2S,3S,5R,6R)-5-{[(2Z,4S)-4-hydroxypent-2-enoyl]amino}-3,6-dimethyltetrahydro-2H-pyran-2-yl]-3-methylpenta-1,3-dien-1-yl}-8-methoxy-1,6-dioxaspiro[2.5]oct-5-yl]acetate] |  |  |  |  | > 100 | > 100
7 | COC(=O)C[C@@H]1C[C@@]2(CO2)[C@H](OC)[C@@H](/C=C/C(C)=C/C[C@@H]2O[C@H](C)[C@H](NC(=O)/C=C\[C@H](C)OC(C)=O)C[C@@H]2C)O1 [#B265, methyl [(3R,5S,7R,8R)-7-{(1E,3E)-5-[(2S,3S,5R,6R)-5-{[(2Z,4S)-4-(acetyloxy)pent-2-enoyl]amino}-3,6-dimethyltetrahydro-2H-pyran-2-yl]-3-methylpenta-1,3-dien-1-yl}-8-methoxy-1,6-dioxaspiro[2.5]oct-5-yl]acetate] |  |  |  |  | 8.67 | 10.2
8 | CC(=O)O[C@@H](C)/C=C\C(=O)N[C@@H]1C[C@H](C)[C@H](C/C=C(C)/C=C/[C@H]2O[C@H](CC(=O)NCc3ccc(C(N)=O)cc3)C[C@@]3(CO3)[C@@H]2O)O[C@@H]1C [#B266, (2S,3Z)-5-{[(2R,3R,5S,6S)-6-{(2E,4E)-5-[(3R,4R,5R,7S)-7-{2-[(4-carbamoylbenzyl)amino]-2-oxoethyl}-4-hydroxy-1,6-dioxaspiro[2.5]oct-5-yl]-3-methylpenta-2,4-dien-1-yl}-2,5-dimethyltetrahydro-2H-pyran-3-yl]amino}-5-oxopent-3-en-2-yl acetate] |  |  |  |  | > 100 | 28.4
9 | CC(=O)O[C@@H](C)/C=C\C(=O)N[C@@H]1C[C@H](C)[C@H](C/C=C(C)/C=C/[C@H]2O[C@H](CC(=O)Nc3ccc(C(N)=O)cc3)C[C@@]3(CO3)[C@@H]2O)O[C@@H]1C [#B267, (2S,3Z)-5-{[(2R,3R,5S,6S)-6-{(2E,4E)-5-[(3R,4R,5R,7S)-7-{2-[(4-carbamoylphenyl)amino]-2-oxoethyl}-4-hydroxy-1,6-dioxaspiro[2.5]oct-5-yl]-3-methylpenta-2,4-dien-1-yl}-2,5-dimethyltetrahydro-2H-pyran-3-yl]amino}-5-oxopent-3-en-2-yl acetate] |  |  |  |  | 23.8 | 3.44
10 | CC(/C=C/[C@@H]1C[C@]2(CO2)C[C@@H](CC(N)=O)O1)=C\C[C@@H]1O[C@H](C)[C@H](NC(=O)/C=C/C(C)N)C[C@@H]1C (stereo partly drawn) [#B271, (2E)-4-amino-N-[(2R,3R,5S,6S)-6-{(2E,4E)-5-[(3S,5S,7S)-7-(2-amino-2-oxoethyl)-1,6-dioxaspiro[2.5]oct-5-yl]-3-methylpenta-2,4-dien-1-yl}-2,5-dimethyltetrahydro-2H-pyran-3-yl]pent-2-enamide] |  | > 100 | > 100 |  |  | 
11 | CC(/C=C/[C@@H]1C[C@]2(CO2)C[C@@H](CC(N)=O)O1)=C\C[C@@H]1O[C@H](C)[C@H](NC(=O)/C=C\C(C)N)C[C@@H]1C (stereo partly drawn) [#B272, (2Z)-4-amino-N-[(2R,3R,5S,6S)-6-{(2E,4E)-5-[(3S,5S,7S)-7-(2-amino-2-oxoethyl)-1,6-dioxaspiro[2.5]oct-5-yl]-3-methylpenta-2,4-dien-1-yl}-2,5-dimethyltetrahydro-2H-pyran-3-yl]pent-2-enamide] |  |  |  |  | > 100 | > 100
12 | CC(/C=C/[C@@H]1C[C@]2(CO2)C[C@@H](CC(N)=O)O1)=C\C[C@@H]1O[C@H](C)[C@H](NC(=O)/C=C/C(C)N)C[C@@H]1C (stereo partly drawn) [#B273, (2E)-4-amino-N-[(2R,3R,5S,6S)-6-{(2E,4E)-5-[(3S,5S,7S)-7-(2-amino-2-oxoethyl)-1,6-dioxaspiro[2.5]oct-5-yl]-3-methylpenta-2,4-dien-1-yl}-2,5-dimethyltetrahydro-2H-pyran-3-yl]pent-2-enamide] |  | > 1000 | 600 |  |  | 
13 | CCCNC(=O)C[C@]1(O)C[C@@]2(CO2)[C@H](O)[C@@H](/C=C/C(C)=C/C[C@@H]2O[C@H](C)[C@H](NC(=O)/C=C\[C@H](C)OC(C)=O)C[C@@H]2C)O1 [#B275, (2S,3Z)-5-({(2R,3R,5S,6S)-6-[(2E,4E)-5-{(3R,4R,5R,7S)-4,7-dihydroxy-7-[2-oxo-2-(propylamino)ethyl]-1,6-dioxaspiro[2.5]oct-5-yl}-3-methylpenta-2,4-dien-1-yl]-2,5-dimethyltetrahydro-2H-pyran-3-yl}amino)-5-oxopent-3-en-2-yl acetate] |  |  |  |  | 22.2 | 5.33
14 | COC(=O)C[C@@H]1C[C@@](O)(CCl)[C@H](O)[C@@H](/C=C/C(C)=C/C[C@@H]2O[C@H](C)[C@H](NC(=O)/C=C\[C@H](C)OC(C)=O)C[C@@H]2C)O1 [#B284, (1S,5R)-5-{(1E,3E)-5-[(2S,3S,5R,6R)-5-{[(2Z,4S)-4-(acetyloxy)pent-2-enoyl]amino}-3,6-dimethyltetrahydro-2H-pyran-2-yl]-3-methylpenta-1,3-dien-1-yl}-1,5-anhydro-3-C-(chloromethyl)-2-deoxy-1-(2-methoxy-2-oxoethyl)-D-erythro-pentitol] |  |  |  |  | 2.03 | 1.3
15 | CCCNC(=O)C[C@@H]1C[C@@](O)(CCl)C[C@@H](/C=C/C(C)=C/C[C@@H]2O[C@H](C)[C@H](NC(=O)/C=C\[C@H](C)OC(C)=O)C[C@@H]2C)O1 [#B285, (2S,3Z)-5-({(2R,3R,5S,6S)-6-[(2E,4E)-5-{(2S,4S,6S)-4-(chloromethyl)-4-hydroxy-6-[2-oxo-2-(propylamino)ethyl]tetrahydro-2H-pyran-2-yl}-3-methylpenta-2,4-dien-1-yl]-2,5-dimethyltetrahydro-2H-pyran-3-yl}amino)-5-oxopent-3-en-2-yl acetate] |  |  |  |  | 11.7 | 7.61
16 | CCCNC(=O)C[C@@H]1C[C@@](O)(CCl)[C@H](O)[C@@H](/C=C/C(C)=C/C[C@@H]2O[C@H](C)[C@H](NC(=O)/C=C\[C@H](C)OC(C)=O)C[C@@H]2C)O1 [#B286, (1S,5R)-5-{(1E,3E)-5-[(2S,3S,5R,6R)-5-{[(2Z,4S)-4-(acetyloxy)pent-2-enoyl]amino}-3,6-dimethyltetrahydro-2H-pyran-2-yl]-3-methylpenta-1,3-dien-1-yl}-1,5-anhydro-3-C-(chloromethyl)-2-deoxy-1-[2-oxo-2-(propylamino)ethyl]-D-erythro-pentitol] |  |  |  |  | 1.11 | 0.387
